Measured values from ChEMBL document CHEMBL4364250, “Improvement of Asparagine Ethylenediamines as Anti-malarial Plasmodium-Selective Proteasome Inhibitors” (J Med Chem, 2019).
The source made the active and inactive calls. The rule behind the calls is not given here.

Columns and labels:
[1] = Clearance in rat liver microsomes; assay type: ADME, Microsome; conditions: read-out: CLH
[2] = test system: beta5 subunit of human 20S immunoproteasome; assay: Selectivity ratio of IC50 for human beta5 20S immunoproteasome to IC50 for Plasmodium falciparum 20S proteasome beta5 subunit; assay type: toxicity; conditions: read-out: Ratio IC50
Plasmodium falciparum [3] = assay: Inhibition of MV151 binding to Plasmodium falciparum 20S proteasome beta1 subunit preincubated for 1 hr followed by MV151 addition and measured after 1 hr by fluorescence assay
Plasmodium falciparum [4] = assay: Antimalarial activity against erythrocytic stage of Plasmodium falciparum 3D7 measured after 72 hrs by SYBR green dye based fluorescence assay; assay type: functional, organism-based; conditions: 3D7, 72 h
[5] = target: T1, Proteasome subunit beta type-8 (Homo sapiens, UniProt P28062); assay: Inhibition of human beta5 20S immunoproteasome using Ac-ANW-AMC as substrate; conditions: for inhibition (INH): human
T1 sequence (P28062 whole entry): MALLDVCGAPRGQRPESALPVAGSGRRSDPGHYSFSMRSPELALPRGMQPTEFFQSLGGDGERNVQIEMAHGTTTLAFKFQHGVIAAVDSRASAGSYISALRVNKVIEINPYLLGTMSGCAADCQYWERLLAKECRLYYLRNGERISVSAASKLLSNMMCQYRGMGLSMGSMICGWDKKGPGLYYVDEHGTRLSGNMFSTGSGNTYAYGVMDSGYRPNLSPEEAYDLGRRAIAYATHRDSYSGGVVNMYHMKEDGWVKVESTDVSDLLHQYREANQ

HepG2 = assay: Cytotoxicity against human HepG2 cells; assay type: cell-based
[6] = Clearance in human liver microsomes; assay type: ADME, Microsome; conditions: read-out: CLH
[7] = (§1) Inhibition of Plasmodium falciparum 20S proteasome beta5 subunit using suc-LLVY-AMC as substrate in presence of beta2 inhibitor WLW-VS
[8] = target: T2, Proteasome Macropain subunit MB1 (Homo sapiens, UniProt P28074); assay: Inhibition of human beta5 20S constitutive proteasome using suc-LLVY-AMC as substrate; conditions: for inhibition (INH): human
T2 sequence (P28074 whole entry): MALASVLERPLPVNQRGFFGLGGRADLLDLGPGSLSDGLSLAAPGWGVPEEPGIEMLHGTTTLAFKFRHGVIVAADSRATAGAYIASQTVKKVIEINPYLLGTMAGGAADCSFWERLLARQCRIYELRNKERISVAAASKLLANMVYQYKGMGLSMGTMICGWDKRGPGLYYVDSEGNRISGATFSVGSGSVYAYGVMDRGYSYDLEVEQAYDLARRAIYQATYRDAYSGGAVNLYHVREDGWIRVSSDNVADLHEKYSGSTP

Karpas-1106P = assay: Cytotoxicity against human KARPAS1106P cells; assay type: cell-based
[9] = Permeability of the compound at pH 7.4 by PAMPA; assay type: ADME; conditions: read-out: permeability
[10] = test system: beta5 subunit of human 20S constitutive proteasome; assay: Selectivity ratio of IC50 for human beta5 20S constitutive proteasome to IC50 for Plasmodium falciparum 20S proteasome beta5 subunit; assay type: toxicity; conditions: read-out: Ratio IC50
[11] = Clearance in mouse liver microsomes; assay type: ADME, Microsome; conditions: read-out: CLH
Plasmodium falciparum [12] = assay: Inhibition of MV151 binding to Plasmodium falciparum 20S proteasome beta2 subunit preincubated for 1 hr followed by MV151 addition and measured after 1 hr by fluorescence assay
Plasmodium falciparum [13] = assay: Resistance index, ratio of EC50 for erythrocytic stage of Plasmodium falciparum Dd2 harboring 20S beta5 proteasome A49S mutant to EC50 erythrocytic stage of Plasmodium falciparum Dd2; assay type: functional
Plasmodium falciparum [14] = assay: Antimalarial activity against erythrocytic stage of Plasmodium falciparum Dd2 harboring 20S beta2 proteasome A117D mutant measured after 72 hrs by SYBR green dye based fluorescence assay; assay type: functional, organism-based; conditions: Dd2, 72 h
Plasmodium falciparum [15] = assay: Antimalarial activity against erythrocytic stage of Plasmodium falciparum Dd2 measured after 72 hrs by SYBR green dye based fluorescence assay; assay type: functional, organism-based; conditions: Dd2, 72 h
Plasmodium falciparum [16] = assay: as §1
Plasmodium falciparum [17] = assay: Inhibition of MV151 binding to Plasmodium falciparum 20S proteasome beta5 subunit preincubated for 1 hr followed by MV151 addition and measured after 1 hr by fluorescence assay
Plasmodium falciparum [18] = assay: Resistance index, ratio of EC50 for erythrocytic stage of Plasmodium falciparum Dd2 harboring 20S beta6 proteasome A117D mutant to EC50 erythrocytic stage of Plasmodium falciparum Dd2
Plasmodium falciparum [19] = assay: Antimalarial activity against erythrocytic stage of Plasmodium falciparum Dd2 harboring 20S beta5 proteasome A49S mutant measured after 72 hrs by SYBR green dye based fluorescence assay; assay type: functional, organism-based; conditions: Dd2, 72 h
Plasmodium falciparum [20] = assay: microbe, parasite or virus in culture; conditions: 72 h
Description: Antimalarial activity against Plasmodium falciparum clinical isolate measured after 72 hrs by SYBR green dye based fluorescence assay

Plasmodium falciparum [21] = assay: Inhibition of MV151 binding to Plasmodium falciparum 20S proteasome beta5 subunit A49S mutant at 1.2 to 33.3 uM preincubated for 1 hr followed by MV151 addition and measured after 1 hr by fluorescence assay
Plasmodium falciparum [22] = assay: Antimalarial activity against erythrocytic stage of Plasmodium falciparum Dd2 measured after 72 hrs in presence of 20S beta2 inhibitor WLW-VS by SYBR green dye based fluorescence assay; assay type: functional, organism-based

**Q.** With `Cc1ccc(S(=O)(=O)N[C@@H](CC(=O)NC(C)(C)C)C(=O)NCCNC(=O)c2ccccc2F)cc1` as the compound, how does the microsomal CLint [1] read?
**A.** Its microsomal CLint is 124 µL/min/mg.

**Q.** And the selectivity ratio [2]?
**A.** Its selectivity ratio is 5.3.

**Q.** What about the inhibition (Plasmodium falciparum [3]) of the same compound?
**A.** Its inhibition is “inactive”.

**Q.** And the EC50 (Plasmodium falciparum [4])?
**A.** Its EC50 is 7.5 nM.

**Q.** What about the IC50 [5] of the same compound?
**A.** The IC50 was 169 nM.

**Q.** What about the EC50 (HepG2) of the same compound?
**A.** Its EC50 is greater than 11000 nM.

**Q.** And the microsomal CLint [6]?
**A.** Its microsomal CLint is 141 µL/min/mg.

**Q.** What about the IC50 [7] of the same compound?
**A.** The IC50 was 32 nM.

**Q.** And the IC50 [8]?
**A.** Its IC50 is 1140 nM.

**Q.** What about the EC50 (Karpas-1106P) of the same compound?
**A.** Its EC50 is greater than 11100 nM.

**Q.** And the Papp [9]?
**A.** The Papp was 10.5 ×10⁻⁶ cm/s.

**Q.** And the selectivity ratio [10]?
**A.** Its selectivity ratio is 36.

**Q.** And the microsomal CLint [11]?
**A.** Its microsomal CLint is 141 µL/min/mg.

**Q.** What about the inhibition (Plasmodium falciparum [12]) of the same compound?
**A.** Its inhibition is “inactive”.

**Q.** What does the source list for `C#Cc1cccc(C(=O)NCCNC(=O)[C@H](CC(=O)NC(C)(C)C)NS(=O)(=O)c2ccc(C)cc2)c1`?
**A.** microsomal CLint [1]: 61 µL/min/mg; Ratio EC50 (Plasmodium falciparum [13]): 152; selectivity ratio [2]: 24; EC50 (Plasmodium falciparum [14]): 61.9 nM; EC50 (Plasmodium falciparum [15]): 3.3 nM; EC50 (Plasmodium falciparum [4]): 3.1 nM; IC50 [5]: 112 nM; inhibition (INH) [5]: Dose-dependent effect; EC50 (HepG2): > 11000 nM; microsomal CLint [6]: 61 µL/min/mg; IC50 [7]: 4.7 nM; inhibition (Plasmodium falciparum [16]): Dose-dependent effect; inhibition (Plasmodium falciparum [17]): Dose-dependent effect; Ratio EC50 (Plasmodium falciparum [18]): 19; IC50 [8]: 430 nM; inhibition (INH) [8]: Dose-dependent effect; EC50 (Karpas-1106P): > 11100 nM; Papp [9]: 20.3 ×10⁻⁶ cm/s; selectivity ratio [10]: 91; microsomal CLint [11]: 97 µL/min/mg; EC50 (Plasmodium falciparum [19]): 502 nM; EC50 (Plasmodium falciparum [20]): 7.1 nM

**Q.** For `Cc1ccc(S(=O)(=O)N[C@@H](CC(=O)NC(C)(C)C)C(=O)NCCNC(=O)c2ccccc2)cc1`, which microsomal CLint [1] is on record?
**A.** The microsomal CLint was 66 µL/min/mg.

**Q.** And the inhibition (Plasmodium falciparum [21])?
**A.** The inhibition was “Active”.

**Q.** And the “Ratio EC50” value (Plasmodium falciparum [13])?
**A.** Its value is 17.

**Q.** And the selectivity ratio [2]?
**A.** Its selectivity ratio is 4.8.

**Q.** And the EC50 (Plasmodium falciparum [14])?
**A.** The EC50 was 111 nM.

**Q.** What about the EC50 (Plasmodium falciparum [15]) of the same compound?
**A.** The EC50 was 7.7 nM.

**Q.** What about the EC50 (Plasmodium falciparum [4]) of the same compound?
**A.** Its EC50 is 8.4 nM.

**Q.** And the IC50 [5]?
**A.** The IC50 was 100 nM.

**Q.** What about the EC50 (HepG2) of the same compound?
**A.** Its EC50 is greater than 11000 nM.

**Q.** And the microsomal CLint [6]?
**A.** Its microsomal CLint is 122 µL/min/mg.

**Q.** And the Activity (Plasmodium falciparum [22])?
**A.** The Activity was “Active”.

**Q.** What about the IC50 [7] of the same compound?
**A.** Its IC50 is 20.8 nM.

**Q.** And the “Ratio EC50” value (Plasmodium falciparum [18])?
**A.** Its value is 14.

**Q.** And the IC50 [8]?
**A.** Its IC50 is 1410 nM.

**Q.** What about the EC50 (Karpas-1106P) of the same compound?
**A.** Its EC50 is greater than 11100 nM.

**Q.** And the Papp [9]?
**A.** Its Papp is 13.7 ×10⁻⁶ cm/s.

**Q.** What about the selectivity ratio [10] of the same compound?
**A.** Its selectivity ratio is 68.

**Q.** What about the microsomal CLint [11] of the same compound?
**A.** The microsomal CLint was 64 µL/min/mg.

**Q.** What about the EC50 (Plasmodium falciparum [19]) of the same compound?
**A.** The EC50 was 135 nM.

**Q.** What does the source list for `Cc1ccc(S(=O)(=O)N[C@@H](CC(=O)NC(C)(C)C)C(=O)NCCNC(=O)c2cc(C)ccc2F)cc1`?
**A.** selectivity ratio [2]: 19; EC50 (Plasmodium falciparum [4]): 13.9 nM; IC50 [5]: 384 nM; inhibition (INH) [5]: Dose-dependent effect; EC50 (HepG2): > 11000 nM; IC50 [7]: 20.7 nM; inhibition (Plasmodium falciparum [16]): Dose-dependent effect; IC50 [8]: 12000 nM; inhibition (INH) [8]: Dose-dependent effect; EC50 (Karpas-1106P): > 11100 nM; selectivity ratio [10]: 581

**Q.** What does the source list for `COc1cccc(C(=O)NCCNC(=O)[C@H](CC(=O)NC(C)(C)C)NS(=O)(=O)c2ccc(C)cc2)c1`?
**A.** microsomal CLint [1]: 115 µL/min/mg; Ratio EC50 (Plasmodium falciparum [13]): 101; selectivity ratio [2]: 4.3; EC50 (Plasmodium falciparum [14]): 63.4 nM; EC50 (Plasmodium falciparum [15]): 2.5 nM; EC50 (Plasmodium falciparum [4]): 2.3 nM; IC50 [5]: 38 nM; EC50 (HepG2): > 11000 nM; microsomal CLint [6]: 202 µL/min/mg; IC50 [7]: 8.9 nM; Ratio EC50 (Plasmodium falciparum [18]): 25; IC50 [8]: 506 nM; EC50 (Karpas-1106P): > 11100 nM; Papp [9]: 15.9 ×10⁻⁶ cm/s; selectivity ratio [10]: 57; microsomal CLint [11]: 142 µL/min/mg; EC50 (Plasmodium falciparum [19]): 252 nM

**Q.** Which results are given for `Cc1ccc(S(=O)(=O)N[C@@H](CC(=O)NC(C)(C)C)C(=O)NCCNC(=O)c2cc(-c3ccccc3F)ccc2F)cc1`?
**A.** inhibition (Plasmodium falciparum [3]): inactive; EC50 (Plasmodium falciparum [4]): 1.6 nM; IC50 [5]: 4 nM; IC50 [8]: 110 nM; inhibition (Plasmodium falciparum [12]): inactive
